# Columns and labels:
# [1] = pH of citric acid and acetic acid at varying concentrations; type: physicochemical
# Procedure: Wipes were prepared as described in Example 1 above. Citric acid at concentrations of Oppm, 500 ppm, 1000 ppm, 2000 and 4000 ppm were separately applied to the Tencel® substrates along with Bardac 205 quaternary ammonium. The wipes were prepared in duplicate. The organic acid and quaternary ammonium chemicals were added to the textile simultaneously. The following is a table showing the pH of citric acid and acetic acid at varying concentrations: […]
# [2] = Squeeze method: expression of quaternary ammonium from treated Tencel wipes, quantified by HPLC; type: physicochemical; details: Example 3, FIG. 4, citric acid 0, 500, 1000, 2000, 4000 ppm with Bardac 205 on Tencel, 24 hours soak
# Procedure: Wipes were prepared as described in Example 1 above. […] The wipes were prepared in duplicate. The organic acid and quaternary ammonium chemicals were added to the textile simultaneously.
Compound,pH ([1]; concentration 10 ppm),pH ([1]; concentration 50 ppm),pH ([1]; concentration 500 ppm),release of dimethyl benzyl ammonium chloride from wipe [2]
"CC(=O)O [Acetic Acid, acetic acid]",2.69,2.62,2.56,
"O=C(O)CC(O)(CC(=O)O)C(=O)O [Citric Acid, citric acid]",2.48,2.58,2.65,
alkyl dimethyl benzyl ammonium chloride,,,,"As the citric acid concentration increased, the amount of quaternary ammonium released also increased"
